Results: the NIST ThermoML archive (doi:10.1016/j.tca.2013.05.022)

How the values were obtained:
[1] = relative permittivity at zero frequency (dimensionless); settings: Liquid, Parallel plate capacitor
[2] = relative permittivity at zero frequency (dimensionless); φn = volume fraction of the nth substance listed; settings: Liquid, Parallel plate capacitor

CCO [ethanol]
[1], 101 kPa
Settings | relative permittivity at zero frequency
303 K | 24.26
313 K | 23.85
323 K | 23.25

CCCO [propan-1-ol]
[1], 101 kPa
Settings | relative permittivity at zero frequency
303 K | 19.95
313 K | 18.65
323 K | 17.82

Cc1ccccc1 [toluene] + CCCO
relative permittivity at zero frequency, [2], 101 kPa
Settings | φ2 = 0.1 | φ2 = 0.2 | φ2 = 0.3 | φ2 = 0.4 | φ2 = 0.5 | φ2 = 0.6 | φ2 = 0.7 | φ2 = 0.8 | φ2 = 0.9
303 K | 3.28 | 4.67 | 6.29 | 7.59 | 8.79 | 11.44 | 13.76 | 15.84 | 18.08
313 K | 3.17 | 4.59 | 6.18 | 7.23 | 8.17 | 11.18 | 13.37 | 15.59 | 17.87
323 K | 2.98 | 4.42 | 5.95 | 6.89 | 7.88 | 10.89 | 13.18 | 15.29 | 17.24

CC(C)O [propan-2-ol] + Cc1ccccc1
relative permittivity at zero frequency, [2], 307116 kPa
Settings | φ1 = 0.1 | φ1 = 0.2 | φ1 = 0.3 | φ1 = 0.4 | φ1 = 0.5 | φ1 = 0.6 | φ1 = 0.7 | φ1 = 0.8 | φ1 = 0.9 | φ1 = 1
303 K | 3.55 | 4.83 | 5.98 | 6.85 | 8.06 | 10.1 | 12.09 | 14.27 | 16.36 | 18.25
313 K | 3.12 | 4.48 | 5.55 | 6.45 | 7.75 | 9.73 | 11.75 | 13.65 | 15.98 | 17.75
323 K | 3 | 4.12 | 5.13 | 6.15 | 7.46 | 9.45 | 11.24 | 13.34 | 15.35 | 16.57

CO [methanol]
[1], 101 kPa
Settings | relative permittivity at zero frequency
303 K | 33.19
313 K | 32.35
323 K | 31.98

Cc1ccccc1 [toluene] + CO
relative permittivity at zero frequency, [2], 101 kPa
Settings | φ2 = 0.1 | φ2 = 0.2 | φ2 = 0.3 | φ2 = 0.4 | φ2 = 0.5 | φ2 = 0.6 | φ2 = 0.7 | φ2 = 0.8 | φ2 = 0.9
303 K | 5.82 | 7.85 | 10.56 | 12.89 | 15.86 | 19.25 | 22.54 | 25.91 | 29.34
313 K | 5.03 | 7.57 | 10.29 | 12.66 | 15.11 | 18.71 | 22.17 | 25.38 | 28.83
323 K | 4.87 | 6.92 | 9.82 | 12.14 | 14.72 | 18.27 | 21.67 | 24.95 | 28.42

CCO [ethanol] + Cc1ccccc1
[2], 101 kPa, φ1 = 1
Settings | relative permittivity at zero frequency
303 K | 24.26
313 K | 23.85
323 K | 23.25

CC(C)O [propan-2-ol]
[1], 307116 kPa
Settings | relative permittivity at zero frequency
303 K | 18.25
313 K | 17.75
323 K | 16.57

CCCO [propan-1-ol] + Cc1ccccc1
[2], 101 kPa, φ1 = 1
Settings | relative permittivity at zero frequency
303 K | 19.95
313 K | 18.65
323 K | 17.82

CO [methanol] + Cc1ccccc1
[2], 101 kPa, φ1 = 1
Settings | relative permittivity at zero frequency
303 K | 33.19
313 K | 32.35
323 K | 31.98

Cc1ccccc1 [toluene] + CCO
relative permittivity at zero frequency, [2], 101 kPa
Settings | φ2 = 0.1 | φ2 = 0.2 | φ2 = 0.3 | φ2 = 0.4 | φ2 = 0.5 | φ2 = 0.6 | φ2 = 0.7 | φ2 = 0.8 | φ2 = 0.9
303 K | 3.97 | 5.64 | 7.43 | 8.29 | 10.1 | 12.53 | 15.27 | 18.07 | 21.14
313 K | 3.42 | 5.27 | 6.34 | 7.98 | 9.7 | 12.26 | 14.78 | 17.72 | 20.78
323 K | 2.95 | 4.91 | 6.14 | 7.87 | 9.2 | 12.07 | 14.54 | 17.28 | 20.14
